Structures are written as SMILES. Some results are limits rather than exact numbers.

In this assay the test system is HCV replicon RNA replication in human Huh7 hepatoma cells. As to the kind of experiment: HCV replicon assay (activity levels from either or both of HCV replicon assay 1, Huh7/Clone A RT-qPCR, and assay 2, Huh7 ET luc-ubi-neo/ET). In kind it is cell-based, Hepatitis C virus (HCV). The settings on record: Hepatitis C virus, Huh-7, either or both HCV replicon assays: Huh7/Clone A, 48 hours, 72 hours, Luc activity or RT-PCR, read-out: inhibit HCV replication at IC50 levels or estimated IC50 levels. The method, boiled down:
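Huh7/Clone A subgenomic replicon cells treated 48 h at 37° C. with 7 serial dilutions in triplicate (0.5% DMSO final). Replicon RNA measured by TaqMan RT-qPCR on the neo gene, normalized to RiboGreen total RNA; untreated cells set as 100% for IC50.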
By IC50 is commonly meant the midpoint of a concentration-inhibition curve. `CN1CCN(c2cc3c(cc2F)c(=O)c(-c2noc(Cc4ccc(F)cc4)n2)cn3Cc2ccc(C(F)(F)F)cc2)CC1` [Compound 37, 6-fluoro-3-[5-(4-fluoro-benzyl)-[1,2,4]oxadiazol-3-yl]-7-(4-methyl-piperazin-1-yl)-1-(4-trifluoromethyl-benzyl)-1H-quinolin-4-one]: the IC50 is less than 2 µM.

As for `O=c1c(-c2noc(Cc3ccccc3)n2)cn(Cc2ccc(C(F)(F)F)cc2)c2cc(NCCOCCO)c(F)cc12` [Compound 73, 3-(5-benzyl-[1,2,4]oxadiazol-3-yl)-6-fluoro-7-[2-(2-hydroxy-ethoxy)-ethylamino]-1-(4-trifluoromethyl-benzyl)-1H-quinolin-4-one], the IC50 was less than 10 µM.

For `CN1CCN(c2cc3c(cc2F)c(=O)c(-c2noc(Cc4ccccc4)n2)cn3Cc2ccccc2F)CC1` [Compound 45, 3-(5-benzyl-[1,2,4]oxadiazol-3-yl)-6-fluoro-1-(2-fluoro-benzyl)-7-(4-methyl-piperazin-1-yl)-1H-quinolin-4-one], the IC50 is less than 10 µM.

For the compound `COC(=O)CNc1cc2c(cc1F)c(=O)c(-c1noc(Cc3ccccc3)n1)cn2Cc1ccc(C(F)(F)F)cc1F` [Compound 66, methyl[3-(5-benzyl-[1,2,4]oxadiazol-3-yl)-6-fluoro-1-(2-fluoro-4-trifluoromethyl-benzyl)-4-oxo-1,4-dihydro-quinolin-7-ylamino]-acetate], the IC50 is more than 10 µM.

On to `CN1CCN(c2cc3c(cc2F)c(=O)c(-c2noc(Cc4ccc(F)cc4)n2)cn3Cc2ccc(Cl)nc2)CC1` [Compound 64, 1-(6-chloro-pyridin-3-ylmethyl)-6-fluoro-3-[5-(4-fluoro-benzyl)-[1,2,4]oxadiazol-3-yl]-7-(4-methyl-piperazin-1-yl)-1H-quinolin-4-one], for which the IC50 is less than 10 µM.

On to `CN1CCN(c2cc3c(cc2F)c(=O)c(-c2noc(Cc4c(F)cccc4F)n2)cn3Cc2ccc(Cl)cc2)CC1` [Compound 33, 1-(4-chloro-benzyl)-3-[5-(2,6-difluoro-benzyl)-[1,2,4]oxadiazol-3-yl]-6-fluoro-7-(4-methyl-piperazin-1-yl)-1H-quinolin-4-one], for which the IC50 is less than 10 µM.

For `CN1CCN(c2cc3c(cc2F)c(=O)c(-c2noc(Cc4ccc(F)cc4)n2)cn3Cc2ccccc2F)CC1` [Compound 47, 6-fluoro-3-[5-(4-fluoro-benzyl)-[1,2,4]oxadiazol-3-yl]-1-(2-fluoro-benzyl)-7-(4-methyl-piperazin-1-yl)-1H-quinolin-4-one], the IC50 was less than 10 µM.

In the case of `CN1CCN(c2cc3c(cc2F)c(=O)c(-c2noc(C(CCCC(N)=O)c4ccccc4)n2)cn3Cc2ccc(Cl)cc2)CC1` (centres unmarked) [Compound 80, 5-{3-[1-(4-chloro-benzyl)-6-fluoro-7-(4-methyl-piperazin-1-yl)-4-oxo-1,4-dihydro-quinolin-3-yl]-[1,2,4]oxadiazol-5-yl}-5-phenyl-pentanamide], the IC50 was less than 2 µM.

Turning to `C[C@@H](c1ccccc1)n1cc(-c2noc(C(C)(C)c3ccccc3)n2)c(=O)c2cc(F)c(N3CCOCC3)cc21` [Compound 143, (S)-6-fluoro-7-morpholino-1-(1-phenylethyl)-3-(5-(2-phenylpropan-2-yl)-1,2,4-oxadiazol-3-yl)quinolin-4(1H)-one], the IC50 is more than 10 µM.

`NC(=O)Cc1ccc2c(c1)c(=O)c(-c1noc(Cc3ccccc3)n1)cn2Cc1ccc(C(F)(F)F)cc1F` [Compound 105, 2-(3-(5-benzyl-1,2,4-oxadiazol-3-yl)-1-(2-fluoro-4-(trifluoromethyl)benzyl)-4-oxo-1,4-dihydroquinolin-6-yl)acetamide]: the IC50 is more than 10 µM.

In the case of `CN1CCN(c2cc3c(cc2F)c(=O)c(-c2noc(C(CC(=O)O)c4ccccc4)n2)cn3Cc2ccc(Cl)cc2)CC1` (centres unmarked) [Compound 31, 3-{3-[1-(4-chloro-benzyl)-6-fluoro-7-(4-methyl-piperazin-1-yl)-4-oxo-1,4-dihydro-quinolin-3-yl]-[1,2,4]oxadiazol-5-yl}-3-phenyl-propionic acid], the IC50 was more than 10 µM.

The record behind these values is patent US20070287699A1, “ANTIVIRAL AGENTS” (ViroBay, Inc., priority 2006, published 2007).
